Source: DBAASP
Values after ≈ are worked out from the molar mass of the structure shown.

Legend:
Experiment in all cases: ≥ marks a high value that may be exact or a test limit, other limits are often not marked, values filed in µg/mL are converted to µM
Bacillus cereus = tested on: Bacillus cereus
Escherichia coli = tested on: Escherichia coli
Staphylococcus aureus = tested on: Staphylococcus aureus
[1] = tested on: Acinetobacter baumannii ATCC 19606
[2] = tested on: Escherichia coli ATCC 25922
[3] = tested on: Pseudomonas aeruginosa ATCC 27853
[4] = tested on: Staphylococcus aureus ATCC 25923
[5] = tested on: Candida albicans ATCC 90028
[6] = tested on: Staphylococcus aureus ATCC 29213
[7] = tested on: Candida albicans ATCC 2002
[8] = tested on: Staphylococcus aureus ATCC 33591

Row | SMILES | MIC (Bacillus cereus) [µM] | MIC (Escherichia coli) [µM] | other results
1 | CC(C)C[C@H](NC(=O)[C@@H](N)Cc1ccccc1)C(=O)NCC(=O)N[C@@H](CCCCN)C(=O)N[C@H](C(=O)N[C@@H](Cc1ccccc1)C(=O)N[C@@H](CCCCN)C(=O)N[C@@H](CCCCN)C(=O)N[C@@H](C)C(=O)N[C@@H](CO)C(=O)N[C@@H](CCCCN)C(=O)N[C@H](C(=O)N[C@@H](Cc1ccccc1)C(=O)N1CCC[C@H]1C(=O)N[C@@H](C)C(=O)N[C@H](C(=O)N[C@H](C(=O)NCC(=O)N[C@@H](CCCCN)C(=O)N[C@H](C(=O)O)C(C)C)C(C)C)C(C)C)C(C)C)C(C)C [FLGKVFKKASKVFPAVVGKV] | ≥ 59.5 | 59.5 (≈ 128 µg/mL) | MIC (Staphylococcus aureus): > 59.5 µM
2 | CC(C)C[C@H](NC(=O)[C@H](CC(C)C)NC(=O)[C@H](CCCCN)NC(=O)[C@H](CCCCN)NC(=O)[C@H](CC(C)C)NC(=O)[C@H](Cc1cnc[nH]1)NC(=O)[C@H](CCCCN)NC(=O)[C@H](CC(C)C)NC(=O)[C@@H](N)Cc1ccccc1)C(N)=O [FLKHLKKLL] | – | – | MIC [1]: 112 µM (≈ 128 µg/mL); MIC [2]: 56.2 µM (≈ 63.9 µg/mL); MIC [3]: 7.02 µM (≈ 7.99 µg/mL); MIC [4]: 112 µM (≈ 128 µg/mL)
3 | CC[C@H](C)[C@H](NC(=O)[C@H](CCCN=C(N)N)NC(=O)[C@H](CCC(N)=O)NC(=O)[C@@H](NC(=O)[C@@H](NC(=O)[C@H](CCCN=C(N)N)NC(=O)[C@@H](N)CCCCN)[C@@H](C)CC)C(C)C)C(=O)N[C@@H](CCCCN)C(=O)N[C@@H](CC(=O)O)C(=O)N[C@@H](Cc1ccccc1)C(=O)N[C@@H](C)C(=O)N[C@@H](CCCN=C(N)N)C(=O)O [KRIVQRIKDFAR] | – | – | MIC [5]: ≥ 40 µM; MIC [2]: 20 µM (≈ 30.6 µg/mL); MIC [3]: 40 µM (≈ 61.2 µg/mL); MIC [6]: 40 µM (≈ 61.2 µg/mL)
4 | CC[C@H](C)[C@H](NC(=O)[C@H](CC(C)C)NC(=O)[C@H](CO)NC(=O)[C@@H]1CCCN1C(=O)[C@@H](NC(=O)[C@@H](NC(=O)[C@H](CCCCN)NC(=O)[C@H](CO)NC(=O)[C@H](C)NC(=O)[C@@H](NC(=O)[C@H](CO)NC(=O)[C@H](Cc1ccccc1)NC(=O)[C@@H](NC(=O)[C@@H](NC(=O)[C@@H]1CCCN1)C(C)C)C(C)C)C(C)C)C(C)C)C(C)C)C(=O)N[C@@H](CO)C(=O)N[C@@H](C)C(=O)N[C@@H](CC(C)C)C(=O)N[C@@H](CCCCN)C(=O)N[C@@H](CCCN=C(N)N)C(=O)O [PVVFSVASKVVPSLISALKR] | ≥ 122 | > 122 | –
5 | CC[C@H](C)[C@H](NC(=O)[C@@H](NC(=O)[C@@H](NC(=O)[C@@H]1CCCN1C(=O)[C@H](Cc1c[nH]c2ccccc12)NC(=O)[C@H](Cc1ccccc1)NC(=O)[C@H](CCCN=C(N)N)NC(=O)[C@H](CCCCN)NC(=O)[C@@H](NC(=O)[C@@H](N)CCCN=C(N)N)[C@@H](C)CC)C(C)C)C(C)C)C(=O)N[C@@H](CCCN=C(N)N)C(=O)N[C@H](C(=O)N[C@H](C(=O)N[C@H](C(=O)O)C(C)C)C(C)C)[C@@H](C)O [RIKRFWPVVIRTVV] | – | – | MIC [7]: ≥ 84.8 µM
6 | CC(C)C[C@H](NC(=O)[C@@H](N)Cc1ccccc1)C(=O)NCC(=O)N[C@@H](CCCCN)C(=O)N[C@H](C(=O)N[C@@H](Cc1ccccc1)C(=O)N[C@@H](CCCCN)C(=O)NCC(=O)N[C@H](C(=O)N[C@@H](CO)C(=O)N[C@@H](CCCCN)C(=O)N[C@H](C(=O)N[C@@H](Cc1ccccc1)C(=O)N1CCC[C@H]1C(=O)N[C@@H](C)C(=O)N[C@H](C(=O)N[C@@H](Cc1ccccc1)C(=O)NCC(=O)N[C@@H](CCCCN)C(=O)N[C@H](C(=O)O)C(C)C)C(C)C)C(C)C)C(C)C)C(C)C [FLGKVFKGVSKVFPAVFGKV] | ≥ 59.4 | 59.4 (≈ 128 µg/mL) | MIC (Staphylococcus aureus): > 59.4 µM
7 | CSCC[C@H](NC(=O)[C@H](CO)NC(=O)[C@H](Cc1ccccc1)NC(=O)[C@@H](NC(=O)[C@H](CO)NC(=O)[C@@H]1CCCN1C(=O)[C@@H](NC(=O)[C@@H](NC(=O)[C@H](CCCCN)NC(=O)[C@H](CO)NC(=O)[C@H](C)NC(=O)[C@H](CC(C)C)NC(=O)[C@H](CO)NC(=O)[C@H](Cc1ccccc1)NC(=O)[C@H](CC(C)C)NC(=O)[C@H](C)N)C(C)C)C(C)C)C(C)C)C(=O)N[C@H](C(=O)N[C@H](C(=O)N[C@@H](CCCCN)C(=O)N[C@@H](CCCCN)C(=O)O)[C@@H](C)O)C(C)C [ALFSLASKVVPSVFSMVTKK] | ≥ 120 | > 120 | –
8 | CC[C@H](C)[C@H](NC(=O)[C@H](CCC(N)=O)NC(=O)[C@H](CCSC)NC(=O)[C@H](CCC(N)=O)NC(=O)[C@@H](NC(=O)[C@H](CCCCN)NC(=O)[C@H](Cc1ccccc1)NC(=O)[C@H](Cc1c[nH]c2ccccc12)NC(=O)[C@@H](N)CCCN=C(N)N)[C@@H](C)CC)C(=O)N[C@@H](CCCN=C(N)N)C(=O)N[C@@H](CCCN=C(N)N)C(=O)N[C@@H](Cc1c[nH]c2ccccc12)C(=O)N[C@@H](CCCCN)C(=O)N[C@@H](CC(N)=O)C(=O)N[C@@H](CCCCN)C(=O)N[C@@H](CCCCN)C(N)=O [RWFKIQMQIRRWKNKK] | – | – | MIC [2]: 32 µM (≈ 71.9 µg/mL); MIC [8]: ≥ 64 µM
9 | CC(C)C[C@H](NC(=O)[C@H](CCCCN)NC(=O)[C@@H](NC(=O)[C@@H](NC(=O)[C@@H](NC(=O)CNC(=O)[C@H](CC(C)C)NC(=O)[C@@H](N)Cc1ccccc1)C(C)C)C(C)C)C(C)C)C(=O)N[C@@H](C)C(=O)N[C@@H](CO)C(=O)N[C@@H](CCCCN)C(=O)N[C@H](C(=O)N[C@@H](Cc1ccccc1)C(=O)N1CCC[C@H]1C(=O)N[C@@H](C)C(=O)N[C@H](C(=O)N[C@@H](Cc1ccccc1)C(=O)NCC(=O)N[C@@H](CCCCN)C(=O)N[C@H](C(=O)O)C(C)C)C(C)C)C(C)C [FLGVVVKLASKVFPAVFGKV] | 15.2 (≈ 32 µg/mL) | > 122 | MIC (Staphylococcus aureus): 7.6 µM (≈ 16 µg/mL)

Now from value to compound, other results behind:

Row | MIC (Bacillus cereus) [µM] | MIC (Escherichia coli) [µM] | SMILES | other results
10 | ≥ 128 | > 128 | CC[C@H](C)[C@H](NC(=O)[C@@H](NC(=O)[C@H](CO)NC(=O)[C@@H]1CCCN1C(=O)[C@@H](NC(=O)[C@@H](NC(=O)[C@H](CCCCN)NC(=O)[C@H](CO)NC(=O)[C@H](C)NC(=O)[C@@H](NC(=O)CNC(=O)[C@H](Cc1ccccc1)NC(=O)[C@@H](NC(=O)[C@@H](NC(=O)[C@@H](N)CO)C(C)C)C(C)C)C(C)C)C(C)C)C(C)C)C(C)C)C(=O)NCC(=O)N[C@@H](CCCCN)C(=O)N[C@H](C(=O)N[C@@H](CCCCN)C(=O)N[C@H](C(=O)O)[C@@H](C)O)C(C)C [SVVFGVASKVVPSVIGKVKT] | –
11 | ≥ 124 | > 124 | CC[C@H](C)[C@H](NC(=O)[C@H](CC(C)C)NC(=O)[C@H](CO)NC(=O)[C@@H]1CCCN1C(=O)[C@@H](NC(=O)[C@@H](NC(=O)[C@H](CCCCN)NC(=O)[C@H](CO)NC(=O)[C@H](C)NC(=O)[C@@H](NC(=O)[C@H](CCCN=C(N)N)NC(=O)CNC(=O)[C@@H](NC(=O)[C@@H](N)C(C)C)C(C)C)C(C)C)C(C)C)C(C)C)C(=O)NCC(=O)N[C@@H](CC(C)C)C(=O)N[C@@H](Cc1ccccc1)C(=O)N[C@H](C(=O)N[C@H](C(=O)N[C@@H](CCCCN)C(=O)O)[C@@H](C)O)[C@@H](C)O [VVGRVASKVVPSLIGLFTTK] | –
